Assay results published in ChEMBL document CHEMBL1201862, “PubChem BioAssay data set” (2004).
Activity calls are given as the source filed them.

Experiments:
[1] = target: T1, Voltage-gated N-type calcium channel alpha-1B subunit/Amyloid beta A4 precursor protein-binding family A member 1 (Homo sapiens, UniProt Q00975+Q02410); type: protein assay
[2] = target: T1, Voltage-gated N-type calcium channel alpha-1B subunit/Amyloid beta A4 precursor protein-binding family A member 1; type: protein assay; remark: listed apart in the source
[3] = target: T2, RNA-binding protein pos-1 (Caenorhabditis elegans, UniProt G5EF15); test: disruptors of C. elegans POS-1 RNA interaction – biochemical, fluorescence polarization, dose response (AID 1964);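 further: purified POS-1 fused to maltose binding protein made in E. coli; potency of compounds blocking POS-1 binding to fluorescent RNA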
T2 sequence (G5EF15 whole entry): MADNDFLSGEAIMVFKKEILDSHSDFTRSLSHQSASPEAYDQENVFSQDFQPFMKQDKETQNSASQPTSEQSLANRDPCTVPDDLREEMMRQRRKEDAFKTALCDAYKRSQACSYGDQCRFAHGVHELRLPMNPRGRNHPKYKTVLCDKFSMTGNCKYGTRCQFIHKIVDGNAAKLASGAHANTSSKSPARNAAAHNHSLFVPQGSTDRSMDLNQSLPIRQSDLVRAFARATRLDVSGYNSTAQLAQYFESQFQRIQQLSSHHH

[4] = target: T3, Zinc finger protein mex-5 (Caenorhabditis elegans, UniProt Q9XUB2); test: potency of MEX-5 RNA-binding blockers – biochemical, C. elegans, fluorescence polarization, dose response (AID 1960)
T3 sequence (Q9XUB2 whole entry): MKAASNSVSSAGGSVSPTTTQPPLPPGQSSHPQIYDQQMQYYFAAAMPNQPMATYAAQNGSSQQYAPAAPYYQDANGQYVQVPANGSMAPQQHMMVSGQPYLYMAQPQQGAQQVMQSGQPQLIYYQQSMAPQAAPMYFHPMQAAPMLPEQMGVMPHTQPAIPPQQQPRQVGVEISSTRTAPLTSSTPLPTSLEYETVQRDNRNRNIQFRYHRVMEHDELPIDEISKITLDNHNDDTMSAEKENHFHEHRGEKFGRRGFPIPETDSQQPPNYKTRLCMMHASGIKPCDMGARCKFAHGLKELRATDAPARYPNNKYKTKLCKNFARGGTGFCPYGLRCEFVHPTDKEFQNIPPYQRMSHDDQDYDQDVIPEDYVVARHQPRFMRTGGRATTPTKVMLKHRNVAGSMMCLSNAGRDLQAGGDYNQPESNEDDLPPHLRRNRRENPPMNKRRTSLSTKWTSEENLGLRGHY

[5] = target: Induced myeloid leukemia cell differentiation protein Mcl-1 (Homo sapiens, UniProt Q07820); type: functional
[6] = target: T4, Ubiquitin-conjugating enzyme E2 N (Homo sapiens, UniProt P61088); type: functional;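 further: Dose-response confirmation in a TR-FRET assay detecting UBC13-driven polyubiquitin chain formation, inhibition measured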
T4 sequence (P61088 whole entry): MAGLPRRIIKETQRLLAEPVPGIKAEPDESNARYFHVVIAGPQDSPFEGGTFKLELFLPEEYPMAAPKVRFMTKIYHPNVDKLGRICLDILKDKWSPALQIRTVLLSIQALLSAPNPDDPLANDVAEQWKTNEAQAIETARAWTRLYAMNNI

[7] = microbe, parasite or virus in culture; type: functional; conditions: Mycobacterium tuberculosis
[8] = test system: Streptococcus sp. 'group A'; test: Streptococcus pyogenes SK(-)GAS viability under kanamycin – luminescence, BacTiterGlo, confirmation, counter-screen for streptokinase expression inhibitor project, dose response (AID 1900); type: functional, organism-based
Streptokinase A = target: T5, Streptokinase A (Streptococcus pyogenes serotype M1, UniProt P10520); test: viability-normalized secreted streptokinase activity reduction – plasminogen activation absorbance, OD405, dose response (AID 1914); type: functional, Streptococcus pyogenes M1 GAS;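 further: secreted streptokinase activity via plasminogen activation per viability signal from cell pellet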
T5 sequence (P10520 whole entry): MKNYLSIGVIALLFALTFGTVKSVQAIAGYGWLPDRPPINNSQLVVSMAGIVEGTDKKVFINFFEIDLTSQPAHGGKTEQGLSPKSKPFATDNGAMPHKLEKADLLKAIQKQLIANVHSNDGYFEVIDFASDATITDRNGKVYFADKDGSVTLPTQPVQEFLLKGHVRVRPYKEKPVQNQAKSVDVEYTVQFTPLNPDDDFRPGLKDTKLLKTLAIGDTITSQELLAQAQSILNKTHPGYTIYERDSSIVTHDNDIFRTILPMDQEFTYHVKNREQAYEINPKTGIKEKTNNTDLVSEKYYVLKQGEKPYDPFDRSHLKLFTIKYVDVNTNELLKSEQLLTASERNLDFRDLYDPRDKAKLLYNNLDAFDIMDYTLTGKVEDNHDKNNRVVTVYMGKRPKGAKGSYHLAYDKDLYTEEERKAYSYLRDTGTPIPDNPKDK

Streptococcus = test: GAS UMAA2166 growth inhibition – luminescence, BacTiterGlo, counter-screen for streptokinase expression inhibitor project, dose response (AID 1915); type: functional, organism-based;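 further: potency for reduction of bacterial viability or growth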
[9] = target: T6, Replicative DNA helicase DnaB (Mycobacterium tuberculosis, UniProt P9WMR3); test: DnaB intein splicing inhibitors, dose response, biochemical, cell-free fluorescence (AID 449749); type: functional
T6 sequence (P9WMR3 whole entry): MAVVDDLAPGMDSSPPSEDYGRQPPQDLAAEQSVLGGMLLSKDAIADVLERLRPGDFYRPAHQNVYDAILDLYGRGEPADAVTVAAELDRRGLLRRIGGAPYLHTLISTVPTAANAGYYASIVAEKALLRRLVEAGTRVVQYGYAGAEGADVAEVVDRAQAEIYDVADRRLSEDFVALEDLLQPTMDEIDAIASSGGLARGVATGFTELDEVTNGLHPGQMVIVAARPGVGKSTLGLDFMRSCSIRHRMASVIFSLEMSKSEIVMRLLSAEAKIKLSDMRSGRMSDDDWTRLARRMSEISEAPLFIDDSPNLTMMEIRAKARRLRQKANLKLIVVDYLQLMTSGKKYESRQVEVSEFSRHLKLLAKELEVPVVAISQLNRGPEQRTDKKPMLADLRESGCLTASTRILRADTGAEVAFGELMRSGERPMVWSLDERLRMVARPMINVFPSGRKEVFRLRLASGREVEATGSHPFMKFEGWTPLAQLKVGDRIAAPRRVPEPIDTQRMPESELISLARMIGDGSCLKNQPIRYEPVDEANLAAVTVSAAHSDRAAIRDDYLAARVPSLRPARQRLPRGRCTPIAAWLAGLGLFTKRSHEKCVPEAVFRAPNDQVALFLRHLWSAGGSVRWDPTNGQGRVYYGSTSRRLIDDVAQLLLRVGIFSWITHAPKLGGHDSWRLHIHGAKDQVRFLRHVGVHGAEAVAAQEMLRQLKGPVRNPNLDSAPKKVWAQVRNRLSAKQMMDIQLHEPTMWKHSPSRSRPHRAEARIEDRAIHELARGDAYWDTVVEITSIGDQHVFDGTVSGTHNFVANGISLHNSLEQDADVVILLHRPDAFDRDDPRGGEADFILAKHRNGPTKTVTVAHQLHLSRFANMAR

Protein RecA = target: T7, Protein RecA (Mycobacterium tuberculosis, UniProt P9WHJ3); test: Fluorescence Cell-Free Homogeneous Dose Retest to Identify Inhibitors of RecA-Intein Splicing Activity. [Related pubchem assays (depositor defined):AID2097, AID2223, AID489010, AID492950]; type: functional
T7 sequence (P9WHJ3 whole entry): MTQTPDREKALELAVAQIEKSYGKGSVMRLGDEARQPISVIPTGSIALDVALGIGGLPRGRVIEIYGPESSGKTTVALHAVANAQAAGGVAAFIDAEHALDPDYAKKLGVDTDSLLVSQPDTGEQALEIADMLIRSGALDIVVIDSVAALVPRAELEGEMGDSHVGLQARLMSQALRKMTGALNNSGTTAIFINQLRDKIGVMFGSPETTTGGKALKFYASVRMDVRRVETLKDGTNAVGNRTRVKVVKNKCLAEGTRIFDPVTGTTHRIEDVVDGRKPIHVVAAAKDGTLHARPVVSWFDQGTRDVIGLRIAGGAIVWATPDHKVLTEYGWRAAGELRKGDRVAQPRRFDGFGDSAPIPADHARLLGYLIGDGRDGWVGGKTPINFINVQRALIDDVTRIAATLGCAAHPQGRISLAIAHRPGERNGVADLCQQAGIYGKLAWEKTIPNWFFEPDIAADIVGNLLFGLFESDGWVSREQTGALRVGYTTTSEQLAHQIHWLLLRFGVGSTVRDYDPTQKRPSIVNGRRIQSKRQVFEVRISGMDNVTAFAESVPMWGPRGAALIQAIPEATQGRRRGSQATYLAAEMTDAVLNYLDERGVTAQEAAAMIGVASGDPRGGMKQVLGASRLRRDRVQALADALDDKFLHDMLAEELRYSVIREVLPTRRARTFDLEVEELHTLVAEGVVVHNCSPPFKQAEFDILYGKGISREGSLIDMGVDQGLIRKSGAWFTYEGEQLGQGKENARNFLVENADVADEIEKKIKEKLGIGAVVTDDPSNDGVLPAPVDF

H9c2 = test: cells; type: functional, cell-based; conditions: Rattus norvegicus, H9c2, Myocardium;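 further: confirmatory concentration-response retest of ultra-high-throughput screening hits for modulation of myocardial damage; cell death induced by hydrogen peroxide oxidative stress; compound pretreatment for 60 min then peroxide exposure for 2 h; potency is for protecting the cells against peroxide damage rather than for killing them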
[10] = blockers of HIV-1 envelope-mediated cell-cell fusion – cherry-pick, dose response (AID 652057); type: functional, cell-based
[11] = blockers of HIV-1 ZM109 envelope-driven cell-cell fusion – HeLa effector, CEM target cells, luciferase, cherry-pick, dose response (AID 652058); type: functional, cell-based;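 further: luciferase signal from HIV-1 Env mediated cell-cell fusion of effector and target cells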
[12] = off-target signal loss in HeLa-CEM21 co-culture – HeLa F-luc CTL cells, cherry-picked, counter-screen for HIV-1 Env fusion inhibitor project, dose response (AID 652040); type: functional, cell-based;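 further: potency for signal decrease marking cytotoxic or nonspecific inhibition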
[13] = HIV-1 AD8 envelope cell-cell fusion blockers – cherry-pick, dose response (AID 652062); type: functional, cell-based;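 further: luciferase signal from cell-cell fusion driven by HIV-1 clade B AD8 Env; potency is for inhibitors of fusion seen as a drop in luminescence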
[14] = intracellular Trypanosoma cruzi inhibitors in host cells – cell-based, plate reader, cherry-pick samples, set 3, dose response (AID 651818); type: functional;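 further: compounds incubated with infected cells for about four days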

Sequence of Induced myeloid leukemia cell differentiation protein Mcl-1 (Q07820 whole entry): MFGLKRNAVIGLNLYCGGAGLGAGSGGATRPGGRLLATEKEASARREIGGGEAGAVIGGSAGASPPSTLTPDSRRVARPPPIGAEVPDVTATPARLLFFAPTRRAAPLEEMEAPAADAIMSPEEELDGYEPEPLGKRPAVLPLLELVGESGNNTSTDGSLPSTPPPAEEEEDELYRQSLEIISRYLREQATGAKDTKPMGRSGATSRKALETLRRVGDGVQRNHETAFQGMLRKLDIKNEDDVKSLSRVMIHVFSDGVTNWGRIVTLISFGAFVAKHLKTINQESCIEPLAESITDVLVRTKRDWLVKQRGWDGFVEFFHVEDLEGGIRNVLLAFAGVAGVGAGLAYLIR
T1 sequence (Q00975 whole entry): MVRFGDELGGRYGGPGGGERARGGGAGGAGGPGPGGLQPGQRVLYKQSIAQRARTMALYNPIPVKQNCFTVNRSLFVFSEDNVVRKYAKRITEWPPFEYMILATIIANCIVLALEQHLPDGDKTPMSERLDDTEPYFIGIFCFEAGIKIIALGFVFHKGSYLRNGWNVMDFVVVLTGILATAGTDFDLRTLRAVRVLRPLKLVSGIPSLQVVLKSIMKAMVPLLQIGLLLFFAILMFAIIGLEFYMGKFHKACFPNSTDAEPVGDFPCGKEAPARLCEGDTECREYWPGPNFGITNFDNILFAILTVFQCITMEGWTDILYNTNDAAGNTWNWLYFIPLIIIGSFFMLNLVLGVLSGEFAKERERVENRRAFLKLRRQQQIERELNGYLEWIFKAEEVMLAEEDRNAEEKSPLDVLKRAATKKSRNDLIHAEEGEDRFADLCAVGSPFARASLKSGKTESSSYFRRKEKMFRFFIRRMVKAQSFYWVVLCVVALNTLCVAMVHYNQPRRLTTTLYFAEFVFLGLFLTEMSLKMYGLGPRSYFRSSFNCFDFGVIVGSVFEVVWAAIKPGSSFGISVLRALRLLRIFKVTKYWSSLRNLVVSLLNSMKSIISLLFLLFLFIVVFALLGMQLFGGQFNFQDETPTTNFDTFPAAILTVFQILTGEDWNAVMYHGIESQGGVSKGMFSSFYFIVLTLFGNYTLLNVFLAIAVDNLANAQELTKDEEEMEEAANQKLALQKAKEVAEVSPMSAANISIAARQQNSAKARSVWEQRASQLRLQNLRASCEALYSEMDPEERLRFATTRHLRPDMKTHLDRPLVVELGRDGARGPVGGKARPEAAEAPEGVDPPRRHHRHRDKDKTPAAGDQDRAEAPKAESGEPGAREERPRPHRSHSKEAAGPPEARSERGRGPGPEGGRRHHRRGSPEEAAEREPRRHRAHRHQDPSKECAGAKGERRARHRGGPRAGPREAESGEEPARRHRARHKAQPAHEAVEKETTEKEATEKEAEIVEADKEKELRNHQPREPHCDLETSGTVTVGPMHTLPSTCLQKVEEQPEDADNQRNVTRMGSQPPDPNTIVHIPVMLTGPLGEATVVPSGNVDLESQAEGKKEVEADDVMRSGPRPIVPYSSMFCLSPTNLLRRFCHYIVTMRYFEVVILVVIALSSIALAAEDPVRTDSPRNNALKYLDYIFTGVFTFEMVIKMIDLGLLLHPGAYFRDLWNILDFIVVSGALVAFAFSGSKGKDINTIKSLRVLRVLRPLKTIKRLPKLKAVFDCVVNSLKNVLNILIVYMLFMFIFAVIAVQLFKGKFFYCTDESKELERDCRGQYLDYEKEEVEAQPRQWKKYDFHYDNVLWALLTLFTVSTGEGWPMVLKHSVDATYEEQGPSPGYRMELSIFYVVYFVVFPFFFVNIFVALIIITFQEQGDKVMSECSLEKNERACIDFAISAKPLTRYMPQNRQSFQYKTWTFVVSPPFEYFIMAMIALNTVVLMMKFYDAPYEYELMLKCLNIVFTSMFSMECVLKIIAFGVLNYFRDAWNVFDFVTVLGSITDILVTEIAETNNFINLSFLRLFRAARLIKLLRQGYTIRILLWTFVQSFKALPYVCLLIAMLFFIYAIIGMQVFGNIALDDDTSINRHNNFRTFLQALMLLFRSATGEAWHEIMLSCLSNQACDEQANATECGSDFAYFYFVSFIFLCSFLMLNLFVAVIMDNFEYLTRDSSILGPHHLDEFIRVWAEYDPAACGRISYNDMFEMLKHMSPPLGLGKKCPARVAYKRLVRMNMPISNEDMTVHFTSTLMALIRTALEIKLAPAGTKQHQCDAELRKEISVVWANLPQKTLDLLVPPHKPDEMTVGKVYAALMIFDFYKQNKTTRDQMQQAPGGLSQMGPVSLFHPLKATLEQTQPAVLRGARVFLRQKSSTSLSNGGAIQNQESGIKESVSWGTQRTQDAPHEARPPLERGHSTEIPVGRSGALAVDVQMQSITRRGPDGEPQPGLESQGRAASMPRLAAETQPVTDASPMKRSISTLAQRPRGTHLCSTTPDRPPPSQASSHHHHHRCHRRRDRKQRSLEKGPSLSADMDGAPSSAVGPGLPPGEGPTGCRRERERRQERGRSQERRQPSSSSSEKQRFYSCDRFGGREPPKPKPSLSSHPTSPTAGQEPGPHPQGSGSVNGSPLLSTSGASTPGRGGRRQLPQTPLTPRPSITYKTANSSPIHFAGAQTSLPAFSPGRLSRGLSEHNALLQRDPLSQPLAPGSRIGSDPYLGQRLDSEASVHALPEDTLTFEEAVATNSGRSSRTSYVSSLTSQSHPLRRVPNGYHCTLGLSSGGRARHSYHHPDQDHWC
T1 sequence (Q02410 whole entry): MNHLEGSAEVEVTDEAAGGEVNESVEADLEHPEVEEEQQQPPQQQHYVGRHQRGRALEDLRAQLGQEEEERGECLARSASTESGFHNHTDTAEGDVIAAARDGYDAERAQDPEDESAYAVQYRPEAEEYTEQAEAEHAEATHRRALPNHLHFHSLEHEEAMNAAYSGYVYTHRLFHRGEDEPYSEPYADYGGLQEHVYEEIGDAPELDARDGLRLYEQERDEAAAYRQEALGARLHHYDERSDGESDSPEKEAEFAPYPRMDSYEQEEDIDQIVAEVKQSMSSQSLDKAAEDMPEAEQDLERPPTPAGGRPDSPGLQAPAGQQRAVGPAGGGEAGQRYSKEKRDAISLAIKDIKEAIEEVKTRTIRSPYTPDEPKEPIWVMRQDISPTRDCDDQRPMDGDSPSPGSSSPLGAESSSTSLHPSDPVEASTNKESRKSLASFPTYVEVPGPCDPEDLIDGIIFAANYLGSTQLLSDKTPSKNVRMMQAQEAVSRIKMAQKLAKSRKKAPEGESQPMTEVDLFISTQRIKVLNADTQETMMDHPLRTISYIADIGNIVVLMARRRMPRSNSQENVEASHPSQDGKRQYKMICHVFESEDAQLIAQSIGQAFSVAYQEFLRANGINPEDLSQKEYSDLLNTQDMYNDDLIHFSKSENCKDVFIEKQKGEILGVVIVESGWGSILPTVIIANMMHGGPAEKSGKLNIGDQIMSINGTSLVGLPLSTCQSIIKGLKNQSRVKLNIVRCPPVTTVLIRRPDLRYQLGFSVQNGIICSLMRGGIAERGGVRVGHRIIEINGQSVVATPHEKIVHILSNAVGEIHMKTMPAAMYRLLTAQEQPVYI

N#Cc1c(O)nsc1Nc1ccccc1Cl
IC50 [1]: 4.76 µM (active)
IC50 [2]: > 50 µM (inactive)

COc1ccc(NC(=O)c2cc3ccc4c5ccccc5[nH]c4c3cc2O)cc1
IC50 [1]: 9.55 µM (active)
IC50 [2]: > 50 µM (inactive)

C1=CC2c3ccccc3NC(c3ccncc3)C2C1 (centres undefined)
EC50 [3]: > 300 µM (not active)
EC50 [4]: 56.6 µM (inconclusive)
IC50 [5]: 2.42 µM (active)

O=C(CCS(=O)(=O)c1ccccc1)Nc1ccc(-c2nc3ccccc3s2)cc1
IC50 [1]: 12.5 µM (active)
IC50 [2]: > 50 µM (inactive)

NC(=O)c1nsc(C(=O)N(c2cccc(F)c2)C(C(=O)NC2CCCC2)c2ccc(O)cc2)c1N (centres undefined)
IC50 [6]: > 20 µM (inactive)

COCCCn1c(SCc2cccc(OC)c2)nc2cc(OC)c(OC)cc2c1=N
CC50 [7]: > 40 µM (active)

COc1ccccc1N1C(=O)C2ON(c3ccccc3)C(c3ccc(N(C)C)cc3)C2C1=O (centres undefined)
IC50 [5]: 9.03 µM (not active)

CN(C(=O)c1cccc(Nc2ccc(-c3ccc4c(c3)OCCO4)nn2)c1)C1CCCCC1
CC50 [7]: 28.4 µM (active)

CCOC(=O)C1=C(O)c2ccccc2C(=O)/C1=C\c1ccc(CC)cc1
EC50 [8]: 13 µM (active)
EC50 (Streptokinase A): > 150 µM (not active)
IC50 [5]: 7.19 µM (active)
EC50 (Streptococcus): 38.1 µM (active)
AC50 [9]: 4.44 µM (active)
EC50 (Protein RecA): 8.86 µM (active)

COc1cc(-c2ccc3oc(-c4ccsc4)cc(=O)c3c2)cc(OC)c1OC
CC50 [7]: 14.3 µM (active)
IC50 (H9c2): > 79 µM (inactive)

CCC(C)(C)NC(=O)C(c1ccccc1F)N(Cc1ccco1)C(=O)c1csnn1 (centres undefined)
AC50 [10]: 5 µM (active)
AC50 [11]: 22.6 µM (active)
AC50 [12]: 7.86 µM (active)
AC50 [13]: 36.2 µM (active)

CCN1C(=O)N/C(=C/c2ccc(C)o2)C1=O
IC50 [1]: 3.29 µM (active)
IC50 [2]: 22.6 µM (active)

COc1ccc(N/C=C/C(=O)c2sc(-c3ccccc3)nc2C)cc1
CC50 [7]: > 40 µM (active)

CCOC(=O)c1c(CSc2ccccc2)oc2cc(Br)c(O)c(CN(C)C)c12
AC50 [10]: 0.907 µM (active)
AC50 [11]: 1.58 µM (active)
AC50 [12]: 1.38 µM (active)
AC50 [13]: 2.46 µM (active)

CC(C)CC(C(=O)NC1CCCC1)N(Cc1ccc2c(c1)OCO2)C(=O)c1snc(C(N)=O)c1N (centres undefined)
IC50 [6]: > 20 µM (inactive)

CC(C(c1ccc2c(c1)OCO2)c1c(N)n(C)c(=O)n(C)c1=O)[N+](=O)[O-] (centres undefined)
CC50 [7]: 36.3 µM (active)

CCN1C(=O)CC(c2ccccc2)N(C2CCCC2)c2nc(Nc3ccc(C(=O)NC4CCN(C)CC4)cc3OC)ncc21 (centres undefined)
IC50 [6]: > 20 µM (inactive)

CCOC(=O)[C@H]1[C@H]2COc3ccccc3[C@@H]2N2C(=O)c3c(C)cc(C)cc3NC(=O)[C@@]12C
AC50 [10]: 0.712 µM (active)
AC50 [11]: 1.7 µM (active)
AC50 [12]: 1.04 µM (active)
AC50 [13]: 0.611 µM (active)

CCc1ccc([C@H]2[C@@H]3C(=O)C[C@@H]4C(=O)N(Cc5ccccc5)C(=O)[C@@H]4[C@@H]3CN2S(=O)(=O)c2ccc(C)cc2)cc1
AC50 [10]: 1.17 µM (active)
AC50 [11]: 1.48 µM (active)
AC50 [12]: 1.8 µM (active)
AC50 [13]: 11.3 µM (active)

COc1ccc(S(=O)(=O)Nc2ccc3c(c2)CC(=O)N([C@H](C)CO)C[C@@H](C)[C@@H](CN(C)S(=O)(=O)c2ccc(OC)cc2)O3)cc1
AC50 [14]: 3.98 µM (active)

COc1cc(Br)cc(/C=N/NC(=O)c2ccccc2O)c1O
AC50 [14]: 1.49 µM (active)

CCN(C[C@H]1N[C@@](C)(C(=O)OC)[C@H]2C(=O)N(Cc3ccccc3)C(=O)[C@@H]12)C(=O)Nc1ccc(C)cc1
AC50 [10]: 0.83 µM (active)
AC50 [11]: 0.959 µM (active)
AC50 [12]: 1.61 µM (active)
AC50 [13]: 3.28 µM (active)
